In US20250025473A1 (priority 2021, published 2025):
pIC50: −log10 of the molar value. Where two headings read alike, the source gives them in different places.

What was measured:
[1] = biological target: T1, PDPK1 (Homo sapiens, UniProt O15530); assay: HotSpot in vitro kinase assay, PDPK1; format: biochemical
T1 construct: purchased Reaction Biology Corporation
T1 sequence (O15530 1-556): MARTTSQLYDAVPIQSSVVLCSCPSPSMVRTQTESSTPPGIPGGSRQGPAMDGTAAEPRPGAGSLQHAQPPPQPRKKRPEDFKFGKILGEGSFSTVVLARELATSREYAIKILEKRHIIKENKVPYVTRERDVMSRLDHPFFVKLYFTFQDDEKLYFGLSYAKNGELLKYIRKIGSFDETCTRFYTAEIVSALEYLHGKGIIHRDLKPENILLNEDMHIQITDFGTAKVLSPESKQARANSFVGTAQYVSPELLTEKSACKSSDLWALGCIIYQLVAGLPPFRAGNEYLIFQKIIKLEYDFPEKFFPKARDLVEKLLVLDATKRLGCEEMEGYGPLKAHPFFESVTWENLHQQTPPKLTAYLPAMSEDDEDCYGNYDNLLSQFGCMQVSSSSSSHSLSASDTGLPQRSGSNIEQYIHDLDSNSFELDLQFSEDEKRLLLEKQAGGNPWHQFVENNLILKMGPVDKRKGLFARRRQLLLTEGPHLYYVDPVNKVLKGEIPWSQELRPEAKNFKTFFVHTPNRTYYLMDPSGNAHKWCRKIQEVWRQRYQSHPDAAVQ

[2] = biological target: T2, panel of 393 kinases (Homo sapiens, UniProt Q15118); assay: biochemical; settings: CIMSS 10 μM, 10 μM ATP
T2 construct: purchased Reaction Biology Corporation

[3] = biological target: T3, panel of 393 kinases (Homo sapiens, UniProt P54646); assay: biochemical; settings: CIMSS 10 μM, 10 μM ATP
T3 construct: purchased Reaction Biology Corporation

[4] = biological target: T4, panel of 393 kinases (Homo sapiens, UniProt Q15120); assay: biochemical; settings: CIMSS 10 μM, 10 μM ATP
T4 construct: purchased Reaction Biology Corporation

[5] = biological target: T5, panel of 393 kinases (Homo sapiens, UniProt Q13131); assay: biochemical; settings: CIMSS 10 μM, 10 μM ATP
T5 construct: purchased Reaction Biology Corporation

[6] = biological target: T6, panel of 393 kinases (Homo sapiens, UniProt P42345); assay: biochemical; settings: CIMSS 10 μM, 10 μM ATP
T6 construct: purchased Reaction Biology Corporation

[7] = biological target: T7, panel of 393 kinases (Homo sapiens, UniProt Q16654); assay: biochemical; settings: CIMSS 10 μM, 10 μM ATP
T7 construct: purchased Reaction Biology Corporation

[8] = biological target: T8, panel of 393 kinases (Homo sapiens, UniProt Q9P2K8); assay: biochemical; settings: CIMSS 10 μM, 10 μM ATP
T8 construct: purchased Reaction Biology Corporation

[9] = biological target: T9, panel of 393 kinases (Homo sapiens, UniProt P19525); assay: biochemical; settings: CIMSS 10 μM, 10 μM ATP
T9 construct: purchased Reaction Biology Corporation

[10] = biological target: T10, panel of 393 kinases (Homo sapiens, UniProt O00418); assay: biochemical; settings: CIMSS 10 μM, 10 μM ATP
T10 construct: purchased Reaction Biology Corporation

[11] = biological target: T11, panel of 393 kinases (Homo sapiens, UniProt Q96QT4); assay: biochemical; settings: CIMSS 10 μM, 10 μM ATP
T11 construct: purchased Reaction Biology Corporation

[12] = biological target: T12, panel of 393 kinases (Homo sapiens, UniProt Q9NZJ5); assay: biochemical; settings: CIMSS 10 μM, 10 μM ATP
T12 construct: purchased Reaction Biology Corporation

[13] = biological target: T13, panel of 393 kinases (Homo sapiens, UniProt Q9BQI3); assay: biochemical; settings: CIMSS 10 μM, 10 μM ATP
T13 construct: purchased Reaction Biology Corporation

[14] = biological target: T14, panel of 393 kinases (Homo sapiens, UniProt P78527); assay: biochemical; settings: CIMSS 10 μM, 10 μM ATP
T14 construct: purchased Reaction Biology Corporation

T5 sequence (Q13131 whole entry): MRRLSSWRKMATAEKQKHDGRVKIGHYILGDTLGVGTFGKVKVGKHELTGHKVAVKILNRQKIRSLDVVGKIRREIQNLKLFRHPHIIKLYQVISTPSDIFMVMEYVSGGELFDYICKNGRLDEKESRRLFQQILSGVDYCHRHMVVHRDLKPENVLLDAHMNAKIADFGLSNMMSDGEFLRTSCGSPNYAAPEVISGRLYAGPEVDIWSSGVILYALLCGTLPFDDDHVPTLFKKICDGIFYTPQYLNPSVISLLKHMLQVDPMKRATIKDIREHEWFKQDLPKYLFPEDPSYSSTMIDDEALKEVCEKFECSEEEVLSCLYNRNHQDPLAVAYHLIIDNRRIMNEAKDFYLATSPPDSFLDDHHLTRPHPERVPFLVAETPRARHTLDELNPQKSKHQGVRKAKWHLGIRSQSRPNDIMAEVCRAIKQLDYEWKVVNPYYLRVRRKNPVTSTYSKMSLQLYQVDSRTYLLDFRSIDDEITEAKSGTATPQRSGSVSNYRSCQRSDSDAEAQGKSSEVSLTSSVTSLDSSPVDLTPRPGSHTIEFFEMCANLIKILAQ
T3 sequence (P54646 whole entry): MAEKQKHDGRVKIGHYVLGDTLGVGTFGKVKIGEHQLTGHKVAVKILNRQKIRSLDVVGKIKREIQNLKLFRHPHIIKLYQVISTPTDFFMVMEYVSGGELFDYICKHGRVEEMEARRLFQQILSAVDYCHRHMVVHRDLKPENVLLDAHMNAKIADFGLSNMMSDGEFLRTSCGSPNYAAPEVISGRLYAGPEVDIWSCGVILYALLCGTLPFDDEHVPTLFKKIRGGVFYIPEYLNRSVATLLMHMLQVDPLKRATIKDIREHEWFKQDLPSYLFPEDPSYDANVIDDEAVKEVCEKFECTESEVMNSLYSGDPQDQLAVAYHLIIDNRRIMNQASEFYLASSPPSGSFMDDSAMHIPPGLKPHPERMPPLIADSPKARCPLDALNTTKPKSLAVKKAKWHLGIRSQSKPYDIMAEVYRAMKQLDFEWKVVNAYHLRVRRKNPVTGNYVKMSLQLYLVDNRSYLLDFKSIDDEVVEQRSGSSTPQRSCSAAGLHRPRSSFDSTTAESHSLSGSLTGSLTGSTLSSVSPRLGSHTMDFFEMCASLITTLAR
T13 sequence (Q9BQI3 whole entry): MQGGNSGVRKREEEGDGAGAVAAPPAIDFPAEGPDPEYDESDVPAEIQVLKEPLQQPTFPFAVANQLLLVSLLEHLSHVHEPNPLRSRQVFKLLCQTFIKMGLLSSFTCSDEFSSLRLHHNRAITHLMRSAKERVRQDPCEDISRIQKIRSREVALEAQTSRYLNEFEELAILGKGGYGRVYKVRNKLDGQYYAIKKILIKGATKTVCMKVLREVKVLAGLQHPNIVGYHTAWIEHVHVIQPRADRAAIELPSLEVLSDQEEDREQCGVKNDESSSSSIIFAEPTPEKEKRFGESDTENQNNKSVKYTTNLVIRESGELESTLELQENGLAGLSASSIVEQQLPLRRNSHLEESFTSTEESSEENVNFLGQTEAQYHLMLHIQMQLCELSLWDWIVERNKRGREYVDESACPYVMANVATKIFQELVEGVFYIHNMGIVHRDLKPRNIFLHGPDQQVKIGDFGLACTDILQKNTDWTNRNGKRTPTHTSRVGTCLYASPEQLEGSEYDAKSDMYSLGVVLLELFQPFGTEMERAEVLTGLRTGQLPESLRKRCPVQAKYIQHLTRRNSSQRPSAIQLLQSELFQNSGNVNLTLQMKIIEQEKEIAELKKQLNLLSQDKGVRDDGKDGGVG
T12 sequence (Q9NZJ5 30-1116): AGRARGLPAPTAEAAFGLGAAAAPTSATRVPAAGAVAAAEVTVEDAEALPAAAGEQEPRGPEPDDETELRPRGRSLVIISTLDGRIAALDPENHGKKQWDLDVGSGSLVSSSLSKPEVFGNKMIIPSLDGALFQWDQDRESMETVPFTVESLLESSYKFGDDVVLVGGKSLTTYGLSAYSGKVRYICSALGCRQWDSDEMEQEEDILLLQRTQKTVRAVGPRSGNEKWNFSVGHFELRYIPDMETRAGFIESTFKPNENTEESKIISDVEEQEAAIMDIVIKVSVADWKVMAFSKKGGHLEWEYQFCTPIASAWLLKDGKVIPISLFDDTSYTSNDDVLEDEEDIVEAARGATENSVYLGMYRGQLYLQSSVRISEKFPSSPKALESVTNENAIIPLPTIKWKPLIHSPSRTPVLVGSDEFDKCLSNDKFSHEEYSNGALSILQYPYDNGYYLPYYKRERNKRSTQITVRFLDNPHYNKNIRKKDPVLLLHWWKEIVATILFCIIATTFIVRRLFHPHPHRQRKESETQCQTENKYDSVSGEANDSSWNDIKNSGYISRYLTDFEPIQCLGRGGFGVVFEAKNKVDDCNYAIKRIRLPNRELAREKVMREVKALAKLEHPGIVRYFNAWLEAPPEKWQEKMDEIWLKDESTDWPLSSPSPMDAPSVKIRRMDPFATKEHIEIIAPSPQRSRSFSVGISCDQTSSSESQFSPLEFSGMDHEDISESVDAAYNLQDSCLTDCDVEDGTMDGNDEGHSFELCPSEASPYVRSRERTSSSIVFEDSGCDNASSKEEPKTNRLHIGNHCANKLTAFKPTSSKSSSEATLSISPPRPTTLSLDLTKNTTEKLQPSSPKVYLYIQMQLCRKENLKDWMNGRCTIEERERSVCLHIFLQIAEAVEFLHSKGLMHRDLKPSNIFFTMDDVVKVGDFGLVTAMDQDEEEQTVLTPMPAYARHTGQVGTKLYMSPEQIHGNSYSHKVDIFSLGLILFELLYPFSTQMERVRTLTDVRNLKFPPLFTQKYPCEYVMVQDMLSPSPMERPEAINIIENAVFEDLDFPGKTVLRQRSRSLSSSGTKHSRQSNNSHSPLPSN
T11 sequence (Q96QT4 whole entry): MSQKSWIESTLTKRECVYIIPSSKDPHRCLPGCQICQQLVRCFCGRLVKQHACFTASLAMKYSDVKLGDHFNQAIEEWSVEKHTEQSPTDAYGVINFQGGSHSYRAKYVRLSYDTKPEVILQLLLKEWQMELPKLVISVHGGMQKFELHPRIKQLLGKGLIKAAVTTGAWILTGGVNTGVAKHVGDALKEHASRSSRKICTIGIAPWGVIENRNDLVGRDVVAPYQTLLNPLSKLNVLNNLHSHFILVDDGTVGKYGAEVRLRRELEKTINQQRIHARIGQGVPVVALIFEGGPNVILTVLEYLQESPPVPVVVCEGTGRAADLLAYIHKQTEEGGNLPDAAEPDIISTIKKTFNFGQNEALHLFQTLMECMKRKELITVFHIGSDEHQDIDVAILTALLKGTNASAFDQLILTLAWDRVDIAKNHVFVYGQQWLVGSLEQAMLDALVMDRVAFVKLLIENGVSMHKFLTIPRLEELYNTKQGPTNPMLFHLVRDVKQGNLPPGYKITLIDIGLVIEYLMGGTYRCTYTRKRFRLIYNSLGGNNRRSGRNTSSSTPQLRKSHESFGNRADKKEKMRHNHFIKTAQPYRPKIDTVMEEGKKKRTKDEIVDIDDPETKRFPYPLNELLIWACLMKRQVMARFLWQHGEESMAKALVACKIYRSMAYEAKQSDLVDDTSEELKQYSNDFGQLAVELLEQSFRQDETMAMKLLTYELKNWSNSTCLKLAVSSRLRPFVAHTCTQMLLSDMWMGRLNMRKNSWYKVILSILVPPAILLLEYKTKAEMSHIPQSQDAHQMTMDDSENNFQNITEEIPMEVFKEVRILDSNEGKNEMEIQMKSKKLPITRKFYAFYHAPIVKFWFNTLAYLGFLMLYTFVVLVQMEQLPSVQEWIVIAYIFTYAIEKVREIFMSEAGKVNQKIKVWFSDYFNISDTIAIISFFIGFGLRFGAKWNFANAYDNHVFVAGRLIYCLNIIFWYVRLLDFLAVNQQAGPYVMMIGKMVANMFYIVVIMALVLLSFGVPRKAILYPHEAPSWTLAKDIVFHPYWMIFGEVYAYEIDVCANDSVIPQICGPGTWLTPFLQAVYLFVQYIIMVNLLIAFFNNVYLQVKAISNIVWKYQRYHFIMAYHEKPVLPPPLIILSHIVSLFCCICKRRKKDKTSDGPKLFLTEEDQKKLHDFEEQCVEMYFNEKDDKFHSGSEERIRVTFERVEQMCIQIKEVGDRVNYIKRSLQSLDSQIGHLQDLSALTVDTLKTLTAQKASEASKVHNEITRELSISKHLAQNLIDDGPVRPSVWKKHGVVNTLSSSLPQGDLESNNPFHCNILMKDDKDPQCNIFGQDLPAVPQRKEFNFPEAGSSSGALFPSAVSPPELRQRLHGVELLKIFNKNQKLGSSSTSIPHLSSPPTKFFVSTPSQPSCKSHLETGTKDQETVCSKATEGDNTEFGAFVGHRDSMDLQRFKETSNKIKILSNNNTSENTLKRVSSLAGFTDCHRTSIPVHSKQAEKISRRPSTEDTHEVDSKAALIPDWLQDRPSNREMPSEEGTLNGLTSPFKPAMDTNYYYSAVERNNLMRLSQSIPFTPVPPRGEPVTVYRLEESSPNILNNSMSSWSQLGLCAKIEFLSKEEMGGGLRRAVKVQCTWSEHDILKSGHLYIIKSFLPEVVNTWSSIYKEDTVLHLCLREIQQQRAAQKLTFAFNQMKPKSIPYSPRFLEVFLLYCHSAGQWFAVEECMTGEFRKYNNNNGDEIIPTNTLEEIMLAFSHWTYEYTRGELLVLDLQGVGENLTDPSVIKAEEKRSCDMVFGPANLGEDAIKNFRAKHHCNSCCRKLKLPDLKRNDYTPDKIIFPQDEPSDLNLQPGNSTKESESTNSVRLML
T2 sequence (Q15118 29-436): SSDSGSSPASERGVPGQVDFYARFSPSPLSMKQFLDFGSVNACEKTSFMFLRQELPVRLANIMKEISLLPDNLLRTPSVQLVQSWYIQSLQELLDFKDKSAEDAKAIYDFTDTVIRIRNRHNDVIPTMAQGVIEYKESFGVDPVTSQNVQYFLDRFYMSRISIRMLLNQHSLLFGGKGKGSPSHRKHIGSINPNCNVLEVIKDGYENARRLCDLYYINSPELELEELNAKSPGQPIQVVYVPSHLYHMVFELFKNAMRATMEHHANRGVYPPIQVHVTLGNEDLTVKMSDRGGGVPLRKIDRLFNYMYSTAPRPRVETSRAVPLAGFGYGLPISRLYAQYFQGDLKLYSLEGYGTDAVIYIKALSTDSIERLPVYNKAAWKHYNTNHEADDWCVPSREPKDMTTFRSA

**Q.** Which results are given for `CO[C@@H]1[C@H](N(C)C(=O)CCC(=O)NCc2cn(CCCS(=O)(=O)[O-])nn2)C[C@H]2O[C@]1(C)n1c3ccccc3c3c4c(c5c6ccccc6n2c5c31)C(=O)NC4.[Na+]` [CIMSS]?
**A.** IC50 for PDPK1 compared with staurosporine [1]: comparable; pIC50 ([1]; in vitro kinase activity, read-out: Compound IC50, PDPK1): 9.56; inhibition at 10 µM ([1]; read-out: inhibition of PDPK1): > 75%; remaining activity at 10 µM ([2]; read-out: % Enzyme Activity (relative to DMSO controls) CIMSS (10 μM) Data 1, kinase PDK1/PDHK1, Data 1): 97.2%; remaining activity at 10 µM ([2]; read-out: % Enzyme Activity (relative to DMSO controls) CIMSS (10 μM) Data 2, kinase PDK1/PDHK1, Data 2): 96.8%; remaining activity at 10 µM ([3]; read-out: % Enzyme Activity (relative to DMSO controls) CIMSS (10 μM) Data 1, kinase AMPK (A2/B1/G3), Data 1): 0.67%; remaining activity at 10 µM ([3]; read-out: % Enzyme Activity (relative to DMSO controls) CIMSS (10 μM) Data 1, kinase AMPK(A2/B1/G1), Data 1): 0.76%; remaining activity at 10 µM ([3]; read-out: % Enzyme Activity (relative to DMSO controls) CIMSS (10 μM) Data 1, kinase AMPK(A2/B2/G1), Data 1): 0.34%; remaining activity at 10 µM ([3]; read-out: % Enzyme Activity (relative to DMSO controls) CIMSS (10 μM) Data 1, kinase AMPK(A2/B2/G2), Data 1): 0.73%; remaining activity at 10 µM ([3]; read-out: % Enzyme Activity (relative to DMSO controls) CIMSS (10 μM) Data 1, kinase AMPK(A2/B2/G3), Data 1): 0.63%; remaining activity at 10 µM ([3]; read-out: % Enzyme Activity (relative to DMSO controls) CIMSS (10 μM) Data 2, kinase AMPK (A2/B1/G3), Data 2): 0.59%; remaining activity at 10 µM ([3]; read-out: % Enzyme Activity (relative to DMSO controls) CIMSS (10 μM) Data 2, kinase AMPK(A2/B1/G1), Data 2): 0.64%; remaining activity at 10 µM ([3]; read-out: % Enzyme Activity (relative to DMSO controls) CIMSS (10 μM) Data 2, kinase AMPK(A2/B2/G1), Data 2): 0.23%; remaining activity at 10 µM ([3]; read-out: % Enzyme Activity (relative to DMSO controls) CIMSS (10 μM) Data 2, kinase AMPK(A2/B2/G2), Data 2): 0.63%; remaining activity at 10 µM ([3]; read-out: % Enzyme Activity (relative to DMSO controls) CIMSS (10 μM) Data 2, kinase AMPK(A2/B2/G3), Data 2): 0.61%; remaining activity at 10 µM ([4]; read-out: % Enzyme Activity (relative to DMSO controls) CIMSS (10 μM) Data 1, kinase PDK3/PDHK3, Data 1): 96.4%; remaining activity at 10 µM ([4]; read-out: % Enzyme Activity (relative to DMSO controls) CIMSS (10 μM) Data 2, kinase PDK3/PDHK3, Data 2): 94.8%; remaining activity at 10 µM ([5]; read-out: % Enzyme Activity (relative to DMSO controls) CIMSS (10 μM) Data 1, kinase AMPK(A1/B1/G1), Data 1): 1.14%; remaining activity at 10 µM ([5]; read-out: % Enzyme Activity (relative to DMSO controls) CIMSS (10 μM) Data 1, kinase AMPK(A1/B1/G2), Data 1): 1.46%; remaining activity at 10 µM ([5]; read-out: % Enzyme Activity (relative to DMSO controls) CIMSS (10 μM) Data 1, kinase AMPK(A1/B1/G3), Data 1): 0.22%; remaining activity at 10 µM ([5]; read-out: % Enzyme Activity (relative to DMSO controls) CIMSS (10 μM) Data 1, kinase AMPK(A1/B2/G1), Data 1): 0.73%; remaining activity at 10 µM ([5]; read-out: % Enzyme Activity (relative to DMSO controls) CIMSS (10 μM) Data 2, kinase AMPK(A1/B1/G1), Data 2): 1.14%; remaining activity at 10 µM ([5]; read-out: % Enzyme Activity (relative to DMSO controls) CIMSS (10 μM) Data 2, kinase AMPK(A1/B1/G2), Data 2): 1.23%; remaining activity at 10 µM ([5]; read-out: % Enzyme Activity (relative to DMSO controls) CIMSS (10 μM) Data 2, kinase AMPK(A1/B1/G3), Data 2): 0.07%; remaining activity at 10 µM ([5]; read-out: % Enzyme Activity (relative to DMSO controls) CIMSS (10 μM) Data 2, kinase AMPK(A1/B2/G1), Data 2): 0.57%; remaining activity at 10 µM ([6]; read-out: % Enzyme Activity (relative to DMSO controls) CIMSS (10 μM) Data 1, kinase mTOR/FRAP1, Data 1): 112%; remaining activity at 10 µM ([6]; read-out: % Enzyme Activity (relative to DMSO controls) CIMSS (10 μM) Data 2, kinase mTOR/FRAP1, Data 2): 108%; remaining activity at 10 µM ([7]; read-out: % Enzyme Activity (relative to DMSO controls) CIMSS (10 μM) Data 1, kinase PDK4/PDHK4, Data 1): 93.2%; remaining activity at 10 µM ([7]; read-out: % Enzyme Activity (relative to DMSO controls) CIMSS (10 μM) Data 2, kinase PDK4/PDHK4, Data 2): 93%; remaining activity at 10 µM ([8]; read-out: % Enzyme Activity (relative to DMSO controls) CIMSS (10 μM) Data 1, kinase EIF2AK4, Data 1): 9.5%; remaining activity at 10 µM ([8]; read-out: % Enzyme Activity (relative to DMSO controls) CIMSS (10 μM) Data 2, kinase EIF2AK4, Data 2): 9.39%; remaining activity at 10 µM ([9]; read-out: % Enzyme Activity (relative to DMSO controls) CIMSS (10 μM) Data 1, kinase EIF2AK2, Data 1): 9.89%; remaining activity at 10 µM ([9]; read-out: % Enzyme Activity (relative to DMSO controls) CIMSS (10 μM) Data 2, kinase EIF2AK2, Data 2): 9.34%; remaining activity at 10 µM ([10]; read-out: % Enzyme Activity (relative to DMSO controls) CIMSS (10 μM) Data 1, kinase EEF2K, Data 1): 99.5%; remaining activity at 10 µM ([10]; read-out: % Enzyme Activity (relative to DMSO controls) CIMSS (10 μM) Data 2, kinase EEF2K, Data 2): 97%; remaining activity at 10 µM ([11]; read-out: % Enzyme Activity (relative to DMSO controls) CIMSS (10 μM) Data 1, kinase TRPM7/CHAK1, Data 1): 91.6%; remaining activity at 10 µM ([11]; read-out: % Enzyme Activity (relative to DMSO controls) CIMSS (10 μM) Data 2, kinase TRPM7/CHAK1, Data 2): 91.5%; remaining activity at 10 µM ([12]; read-out: % Enzyme Activity (relative to DMSO controls) CIMSS (10 μM) Data 1, kinase EIF2AK3, Data 1): 61.6%; remaining activity at 10 µM ([12]; read-out: % Enzyme Activity (relative to DMSO controls) CIMSS (10 μM) Data 2, kinase EIF2AK3, Data 2): 60.2%; remaining activity at 10 µM ([13]; read-out: % Enzyme Activity (relative to DMSO controls) CIMSS (10 μM) Data 1, kinase EIF2AK1, Data 1): 82.5%; remaining activity at 10 µM ([13]; read-out: % Enzyme Activity (relative to DMSO controls) CIMSS (10 μM) Data 2, kinase EIF2AK1, Data 2): 81.2%; remaining activity at 10 µM ([14]; read-out: % Enzyme Activity (relative to DMSO controls) CIMSS (10 μM) Data 1, kinase DNA-PK, Data 1): 98.2%; remaining activity at 10 µM ([14]; read-out: % Enzyme Activity (relative to DMSO controls) CIMSS (10 μM) Data 2, kinase DNA-PK, Data 2): 95.8%
